Experimental data as given in patent US20100317647A1 (priority 2009, published 2010).

What follows are compounds tested against human Cat S (Homo sapiens, UniProt P25774) (assay: Cathepsin enzyme inhibition assay (fluorogenic peptide substrate cleavage)). Settings: human Cat S 1 nM; substrate Z-Val-Val-Arg-AMC 20 μM; pH 6.5; fluorescence over 20 minutes.
Format: biochemical
Summary of the method: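 Fluorogenic cleavage of Z-Val-Val-Arg-AMC (20 μM) by 1 nM enzyme in 100 mM potassium phosphate pH 6.5, 5 mM EDTA, 5 mM DTT, 0.001% Triton X-100. Reaction started with substrate; fluorescence (ex 360/em 465 nm) followed over 20 minutes. IC50 by standard methods.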

human Cat S, sequence (P25774 115-331): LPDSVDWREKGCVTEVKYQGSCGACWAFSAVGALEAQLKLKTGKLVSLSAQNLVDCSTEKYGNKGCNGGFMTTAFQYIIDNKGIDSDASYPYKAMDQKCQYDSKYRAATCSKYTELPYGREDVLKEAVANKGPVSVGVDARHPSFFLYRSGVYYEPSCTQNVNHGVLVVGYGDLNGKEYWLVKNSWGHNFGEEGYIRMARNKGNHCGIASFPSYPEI

SMILES | IC50
CC(=O)N1CCN(c2ccc(S(=O)(=O)C3CC(C(=O)NC4(C#N)CC4)C(C(=O)N4CC(F)(F)C4)C3)c(C(F)(F)F)c2)CC1 (stereo not drawn) [Example 131, 4-[4-(4-Acetyl-piperazin-1-yl)-2-trifluoromethyl-benzenesulfonyl]-2-(3,3-difluoro-azetidine-1-carbonyl)-cyclopentanecarboxylic acid (1-cyano-cyclopropyl)-amide] | 1.2 nM
N#CC1(NC(=O)C2CC(S(=O)(=O)c3ccc(N4CCC(F)(F)C4)cc3C(F)(F)F)CC2C(=O)N2CC(F)(F)C2)CC1 (stereo not drawn) [Example 132, 2-(3,3-Difluoro-azetidine-1-carbonyl)-4-[4-(3,3-difluoro-pyrrolidin-1-yl)-2-trifluoromethyl-benzenesulfonyl]-cyclopentanecarboxylic acid (1-cyano-cyclopropyl)-amide] | 1.2 nM
N#CC1(NC(=O)[C@@H]2C[C@@H](S(=O)(=O)c3ccc(N4CC5(COC5)C4)cc3C(F)(F)F)C[C@H]2C(=O)N2CC(F)(F)C2)CC1 [Example 133, (1R,2R,4R)-2-(3,3-Difluoro-azetidine-1-carbonyl)-4-[4-(2-oxa-6-aza-spiro[3.3]hept-6-yl)-2-trifluoromethyl-benzenesulfonyl]-cyclopentanecarboxylic acid (1-cyano-cyclopropyl)-amide] | 0.5 nM
N#CC1(NC(=O)[C@@H]2C[C@@H](S(=O)(=O)c3ccc(OCC(F)(F)F)cc3Cl)C[C@H]2C(=O)N2CC(F)(F)C2)CC1 [Example 134, (1R,2R,4R)-4-[2-Chloro-4-(2,2,2-trifluoro-ethoxy)-benzenesulfonyl]-2-(3,3-difluoro-azetidine-1-carbonyl)-cyclopentanecarboxylic acid (1-cyano-cyclopropyl)-amide] | 1.4 nM
C[C@H](Oc1ccc(S(=O)(=O)[C@@H]2C[C@@H](C(=O)NC3(C#N)CC3)[C@H](C(=O)N3CC(F)(F)C3)C2)c(Cl)c1)C(F)(F)F [Example 135, (1R,2R,4R)-4-[2-Chloro-4-((S)-2,2,2-trifluoro-1-methyl-ethoxy)-benzenesulfonyl]-2-(3,3-difluoro-azetidine-1-carbonyl)-cyclopentanecarboxylic acid (1-cyano-cyclopropyl)-amide] | 2.4 nM
N#CC1(NC(=O)[C@@H]2C[C@@H](S(=O)(=O)c3ccc(N4CC(F)(F)C4)cc3Cl)C[C@H]2C(=O)N2CC(F)(F)C2)CC1 [Example 136, (1R,2R,4R)-4-[2-Chloro-4-(3,3-difluoro-azetidin-1-yl)-benzenesulfonyl]-2-(3,3-difluoro-azetidine-1-carbonyl)-cyclopentanecarboxylic acid (1-cyano-cyclopropyl)-amide] | 1.3 nM
CO[C@@H]1C[C@H](S(=O)(=O)c2ccc(-c3cnn(C)c3)cc2C(F)(F)F)C[C@H]1C(=O)NC1(C#N)CC1 [Example 138, (1R,2R,4R)-2-Methoxy-4-[4-(1-methyl-1H-pyrazol-4-yl)-2-trifluoromethyl-benzenesulfonyl]-cyclopentanecarboxylic acid (1-cyano-cyclopropyl)-amide] | 0.4 nM
CO[C@@H]1C[C@H](S(=O)(=O)c2ccc(-c3ccnc(C)c3)cc2C(F)(F)F)C[C@H]1C(=O)NC1(C#N)CC1 [Example 139, (1R,2R,4R)-2-Methoxy-4-[4-(2-methyl-pyridin-4-yl)-2-trifluoromethyl-benzenesulfonyl]-cyclopentanecarboxylic acid (1-cyano-cyclopropyl)-amide] | 0.3 nM
CCN1CCN(c2ccc(S(=O)(=O)[C@H]3C[C@@H](COc4ccc(F)cc4)[C@H](C(=O)NCC#N)C3)c(Cl)c2)CC1 [Example 147, (1R,2R,4S)-4-[2-Chloro-4-(4-ethyl-piperazin-1-yl)-benzenesulfonyl]-2-(4-fluoro-phenoxymethyl)-cyclopentanecarboxylic acid cyanomethyl-amide] | 0.227 nM
N#CC1(NC(=O)[C@@H]2C[C@H](S(=O)(=O)c3ccccc3Cl)C[C@H]2CN2CCC(c3ccc(F)cc3)CC2)CC1 [Example 148, (1R,2R,4R)-4-(2-Chloro-benzenesulfonyl)-2-[4-(4-fluoro-phenyl)-piperidin-1-ylmethyl]-cyclopentanecarboxylic acid (1-cyano-cyclopropyl)-amide] | 515 nM
N#CC1(NC(=O)[C@@H]2C[C@@H](S(=O)(=O)c3ccc(Br)cc3C(F)(F)F)C[C@H]2COC=O)CC1 [Example 152, Formic acid (1R,2R,4S)-4-(4-bromo-2-trifluoromethyl-benzenesulfonyl)-2-(1-cyano-cyclopropylcarbamoyl)-cyclopentylmethyl ester] | 4.2 nM
COc1ccc(COC[C@@H]2C[C@H](S(=O)(=O)c3ccc(F)cc3Cl)C[C@H]2C(=O)NC2(C#N)CC2)cc1 [Example 153, (1R,2R,4S)-4-(2-Chloro-4-fluoro-benzenesulfonyl)-2-(4-methoxy-benzyloxymethyl)-cyclopentanecarboxylic acid (1-cyano-cyclopropyl)-amide] | 25.5 nM
N#CC1(NC(=O)[C@@H]2C[C@@H](S(=O)(=O)c3ccc(F)cc3Cl)C[C@H]2CO)CC1 [Example 155, (1R,2R,4S)-4-(2-Chloro-4-fluoro-benzenesulfonyl)-2-hydroxymethyl-cyclopentanecarboxylic acid (1-cyano-cyclopropyl)-amide] | 107 nM
CC(C)OC[C@@H]1C[C@H](S(=O)(=O)c2ccc(F)cc2Cl)C[C@H]1C(=O)NC1(C#N)CC1 [Example 156, (1R,2R,4S)-4-(2-Chloro-4-fluoro-benzenesulfonyl)-2-isopropoxymethyl-cyclopentanecarboxylic acid (1-cyano-cyclopropyl)-amide] | 31.5 nM
N#CC1(NC(=O)[C@@H]2C[C@@H](S(=O)(=O)c3ccc(F)cc3Cl)C[C@H]2CF)CC1 [Example 157, (1R,2R,4R)-4-(2-Chloro-4-fluoro-benzenesulfonyl)-2-fluoromethyl-cyclopentanecarboxylic acid (1-cyano-cyclopropyl)-amide] | 61.5 nM
CN1CCN(c2ccc(S(=O)(=O)[C@@H]3C[C@@H](C(=O)NC4(C#N)CC4)[C@H](C(=O)N4CC(F)(F)C4)C3)c(Cl)c2)CC1 [Example 158, (1R,2R,4R)-4-[2-Chloro-4-(4-methyl-piperazin-1-yl)-benzenesulfonyl]-2-(3,3-difluoro-azetidine-1-carbonyl)-cyclopentanecarboxylic acid (1-cyano-cyclopropyl)-amide] | 0.63 nM
N#CC1(NC(=O)[C@@H]2C[C@@H](S(=O)(=O)c3ccc(N4CCN(C5CC5)CC4)cc3Cl)C[C@H]2C(=O)N2CC(F)(F)C2)CC1 [Example 159, (1R,2R,4R)-4-[2-Chloro-4-(4-cyclopropyl-piperazin-1-yl)-benzenesulfonyl]-2-(3,3-difluoro-azetidine-1-carbonyl)-cyclopentanecarboxylic acid (1-cyano-cyclopropyl)-amide] | 0.385 nM
CC(C)(C)N1CCN(c2ccc(S(=O)(=O)[C@@H]3C[C@@H](C(=O)NC4(C#N)CC4)[C@H](C(=O)N4CC(F)(F)C4)C3)c(Cl)c2)CC1 [Example 160, (1R,2R,4R)-4-[4-(4-tert-Butyl-piperazin-1-yl)-2-chloro-benzenesulfonyl]-2-(3,3-difluoro-azetidine-1-carbonyl)-cyclopentanecarboxylic acid (1-cyano-cyclopropyl)-amide] | 0.165 nM
